# According to US6506407B2, “Colon-specific drug release system” (Yamanouchi Pharmaceutical Co., Ltd., priority 1994, dated 2003):
# Columns and labels:
# [1] = pH in the cecum with time after oral lactulose aqueous solution (Test Example 3); assay type: in vivo, SD male rats; conditions: for pH in the cecum: oral 100 mg/rat
# Procedure: SD male rats deprived of food overnight were orally given a lactulose aqueous solution (100 mg/rat), and the pH in the cecum was measured with time.
# [2] = system: contents of the cecum (enterobacteria); assay: pH change of dispersion of rat cecal contents in PBS (C-PBS) with lactulose, shaken at 37° C. under anaerobic condition (Test Example 2); set-up: species or system SD male rat
# Procedure: A 1/15 M phosphate buffer solution (NaH2PO4-Na2HPO4; pH 7.3; hereinafter referred to as PBS) was made isotonic by addition of sodium chloride and adjusted to pH 6.8 by CO2 bubbling. The contents of the cecum of an SD male rat was dispersed therein to prepare a 10 w/v % dispersion of the cecal contents in PBS (hereinafter referred to as C-PBS). To 10 ml of C-PBS was added 100 mg of lactulose, and the mixture was shaken (50 strokes/min) at 37° C. under an anaerobic condition, and the pH change was measured. As a control, the same test was conducted on no lactulose-administered C-PBS. The same test was carried out on a mixture of 30 w/v % C-PBS and lactulose. As shown in the table, the pH of the cecal contents rapidly decreases by the addition of lactulose.
# [3] = system: enterobacteria; assay: generation of organic acid by the action of enterobacteria
# [4] = system: contents of the cecum of a rat (enterobacteria); assay: pH of 10 w/v % cecal contents dispersion (CPBS) with saccharide (Test Example 7); conditions: 200 mg saccharide in 20 ml 10 w/v % CPBS, 37° C.
# Procedure: An isotonic phosphate buffer solution (pH: 7.3; PBS) was adjusted to pH 6.8 by CO2 bubbling. The contents of the cecum of a rat deprived of food for 24 hours was dispersed, therein to prepare a 10 w/v % dispersion of the cecal contents in PBS (CPBS). To 20 ml of CPBS was added 200 mg of a saccharide, and the mixture was shaken in a water bath at 37° C., and the pH of the CPBS was measured with time.
# [5] = water solubility of saccharides and sugar alcohols
# [6] = phosphorus concentration in plasma after salmon calcitonin; assay type: in vivo; conditions: beagle dogs in fasted condition, s.c., 50 IU/animal, versus untreated control
# Procedure: The following solution was subcutaneously administered to beagle dogs in fasted condition. Blood was taken with time to determine the phosphorus concentration in plasma using Inorganic Phosphorus E-HA Test Wako (Wako Pure Chemical Industries, Ltd.).
# 1% Gelatin solution containing 50 IU/0.2 ml of salmon calcitonin (pH 3; 0.2 ml; 50 IU/animal)
# A single tablet of the preparation obtained in Examples 21, 22 or 24 or two tablets of the preparation obtained in Example 23 was administered orally to beagle dogs together with 30 ml of water, and blood was taken with time to determine the phosphorus concentration in plasma.
# A single tablet of the preparation obtained in Examples 25, 26 or 28 or two tablets of the preparation obtained in Example 27 was administered orally to beagle dogs together with 30 ml of water, and blood was taken with time to determine the phosphorus concentration in plasma.
compound,measurement,setting,value
OC[C@H]1O[C@@H](O[C@@H]2[C@@H](CO)OC(O)(CO)[C@H]2O)[C@H](O)[C@@H](O)[C@H]1O (mixture of isomers) [lactulose],duration of pH reduction in the cecum,[1]; 100 mg/animal,8 hours
same,pH in the cecum reduced to,"[1]; 100 mg/animal, in 3 to 4 hours from the administration",about 5.5
same,pH in the cecum,[1]; 1 hr,8.2
same,pH in the cecum,[1]; 2 hr,6.8
same,pH in the cecum,[1]; 3 hr,6.2
same,pH in the cecum,[1]; 4 hr,5.5
same,pH in the cecum,[1]; 5 hr,5.6
same,pH in the cecum,[1]; 6 hr,5.8
same,pH in the cecum,[1]; 7 hr,5.3
same,pH in the cecum,"[1]; rats deprived of food overnight, 0 hr",7.6
same,pH of C-PBS,"[2]; 10 w/v % C-PBS 10 ml, lactulose 100 mg, 0 hr",6.42
same,pH of C-PBS,"[2]; 10 w/v % C-PBS 10 ml, lactulose 100 mg, 2 hr",5.93
same,pH of C-PBS,"[2]; 10 w/v % C-PBS 10 ml, lactulose 100 mg, 4 hr",5.64
same,pH of C-PBS,"[2]; 10 w/v % C-PBS 10 ml, lactulose 100 mg, 6 hr",5.41
same,pH of C-PBS,"[2]; 10 w/v % C-PBS 10 ml, lactulose 100 mg, 8 hr",5.27
same,pH of C-PBS,"[2]; 10 w/v % C-PBS 10 ml, lactulose 100 mg, 24 hr",4.76
same,pH of C-PBS,"[2]; 30 w/v % C-PBS and lactulose, 0 hr",6.42
same,pH of C-PBS,"[2]; 30 w/v % C-PBS and lactulose, 2 hr",5.39
same,pH of C-PBS,"[2]; 30 w/v % C-PBS and lactulose, 4 hr",5.25
same,pH of C-PBS,"[2]; 30 w/v % C-PBS and lactulose, 6 hr",5.15
same,pH of C-PBS,"[2]; 30 w/v % C-PBS and lactulose, 8 hr",5.08
same,rapid generation of an organic acid by enterobacteria,[3],degraded rapidly to generate an organic acid
O=C(CO)[C@@H](O)[C@H](O)[C@H](O)CO [fructose],degradation by enterobacteria with organic acid generation (pH of CPBS with time),[4],degraded by enterobacteria to generate an organic acid similarly to lactulose
same,rapid generation of an organic acid by enterobacteria,[3],generate an organic acid rapidly
same,water solubility,[5],high
O=C[C@H](O)[C@@H](O)[C@@H](O)[C@H](O)CO [galactose],degradation by enterobacteria with organic acid generation (pH of CPBS with time),[4],degraded by enterobacteria to generate an organic acid similarly to lactulose
same,rapid generation of an organic acid by enterobacteria,[3],generate an organic acid rapidly
same,water solubility,[5],high
OC[C@H]1O[C@@H](O[C@H]2[C@H](O)[C@@H](O)C(O)O[C@@H]2CO)[C@H](O)[C@@H](O)[C@H]1O (stereo partly drawn) [lactose],rapid generation of an organic acid by enterobacteria,[3],no rapid generation of an organic acid
Cc1occc(=O)c1O [maltol],rapid generation of an organic acid by enterobacteria,[3],rapid generation of an organic acid was not observed
same,water solubility,[5],low
OC[C@H]1O[C@H](O[C@H]2[C@H](O)[C@@H](O)[C@H](O)O[C@@H]2CO)[C@H](O)[C@@H](O)[C@@H]1O [maltose],degradation by enterobacteria with organic acid generation (pH of CPBS with time),[4],degraded by enterobacteria to generate an organic acid similarly to lactulose
same,rapid generation of an organic acid by enterobacteria,[3],generate an organic acid rapidly
OC[C@@H](O)[C@@H](O)[C@H](O)[C@H](O)CO [mannitol],rapid generation of an organic acid by enterobacteria,[3],rapid generation of an organic acid was not observed
same,water solubility,[5],medium
O=C[C@H](O)[C@H](O)[C@H](O)CO [ribose],rapid generation of an organic acid by enterobacteria,[3],no rapid generation of an organic acid
same,water solubility,[5],low
OC[C@@H](O)[C@@H](O)[C@H](O)[C@@H](O)CO [sorbitol],rapid generation of an organic acid by enterobacteria,[3],rapid generation of an organic acid was not observed
same,water solubility,[5],high
OC[C@H]1O[C@@](CO)(O[C@H]2O[C@H](CO)[C@@H](O)[C@H](O)[C@H]2O)[C@@H](O)[C@@H]1O [sucrose],degradation by enterobacteria with organic acid generation (pH of CPBS with time),[4],degraded by enterobacteria to generate an organic acid similarly to lactulose
same,rapid generation of an organic acid by enterobacteria,[3],generate an organic acid rapidly
same,water solubility,[5],high
OC[C@@H](O)[C@H](O)[C@@H](O)CO [xylitol],rapid generation of an organic acid by enterobacteria,[3],rapid generation of an organic acid was not observed
same,water solubility,[5],high
O=C[C@H](O)[C@@H](O)[C@H](O)CO [xylose],rapid generation of an organic acid by enterobacteria,[3],generate an organic acid rapidly
same,water solubility,[5],high
fructooligosaccharide,degradation by enterobacteria with organic acid generation (pH of CPBS with time),[4],degraded by enterobacteria to generate an organic acid similarly to lactulose
salmon calcitonin,phosphorus level in plasma after subcutaneous administration,[6],suppressed immediately after the administration
